Measured values taken from paper PMC10818515, “Improvement of the Thermal Stability and Aqueous Solubility of Three Matrine Salts Assembled by the Similar Structure Salt Formers” (Pharmaceuticals, 2024).
≈ marks a conversion by molar mass, not a printed value. Where two headings read alike, the source gives them in different places.

Experiment: Equilibrium solubility by the shake flask method
Assay type: physicochemical
Conditions: 37 °C; for Equilibrium solubility, Concentration / solubility thermodynamic at 72 h: n = 3; for solubility thermodynamic at 72 h: thermodynamic from solid, read-out: Equilibrium solubility, Concentration
Protocol: Aqueous solubility is one of the key factors affecting the bioavailability of drugs. […] Generally, the charged part has high aqueous solubility. […] The concentration of the samples was analyzed through high-performance liquid chromatography. The mobile phase consisted of methanol, acetonitrile, and phosphate buffer (15:15:70).

Row | Compound | Equilibrium solubility, Concentration (H2O (purified water)) | Solubility relative to that of MAT (acetate buffer (pH 4.5)) | Solubility relative to that of MAT (hydrochloric acid solution (pH 1.2)) | Equilibrium solubility, Concentration (pH = 1.2 hydrochloric acid solution) | Equilibrium solubility, Concentration (pH = 4.5 acetic acid buffer) | Equilibrium solubility, Concentration (pH = 6.8 phosphate buffer) | Solubility relative to that of MAT (phosphate buffer (pH 6.8)) | Solubility relative to that of MAT (pure water) | solubility thermodynamic at 72 h (aqueous buffer, pH = 4.5 acetic acid buffer) | solubility thermodynamic at 72 h (aqueous buffer, pH = 6.8 phosphate buffer) | solubility thermodynamic at 72 h (simulated gastric fluid, pH = 1.2 hydrochloric acid solution) | solubility thermodynamic at 72 h (H2O (purified water))
1 | O=C(O)c1c(O)cccc1O.O=C1CCCC2C3CCCN4CCCC(CN12)C34 (stereo not drawn) [MAT-26DHB, MAT-2,6-dihydroxybenzoic acid] | 7.42 ± 0.45 mg/mL | 0.09 times | 0.14 times | 13.08 ± 1.52 mg/mL | 8.23 ± 0.10 mg/mL | 5.71 ± 0.75 mg/mL | 0.09 times | 0.11 times |  |  |  | 
2 | O=C1CCC[C@@H]2[C@H]3CCCN4CCC[C@@H](CN12)[C@@H]34 [MAT, Matrine] |  |  |  |  |  |  |  |  | 91.8 ± 2.31 mg/mL (≈ 370 mM) | 64.9 ± 1.13 mg/mL (≈ 261 mM) | 90.9 ± 1.01 mg/mL (≈ 366 mM) | 65.36 ± 0.53 mg/mL (≈ 263 mM)
